Reference: PMC2944806, “HLA Class I Binding of HBZ Determines Outcome in HTLV-1 Infection” (PLoS Pathogens, 2010)

Experiments:
[1] = target: T1, HLA class I molecule A*2402 (Homo sapiens, UniProt P04439, D101N/D140Y/D185E/E176V/E190D/F33S/G103R/G107R/I119L/I121M/I306V/K335N/L105A/L180Q/L300P/N151K/N90K/Q86E/Q94H/R106L/R138H/R89G/T104I/T345S/V100E/W191G/Y123F); type: binding; details: REVEAL assay, assembly of peptide-HLA complex by ELISA with conformation-dependent anti-HLA antibody, relative to positive control peptide for that allele, comparable within an allele only
T1 construct: purchased ProImmune Ltd., Oxford, UK

[2] = target: T2, HLA class I molecule A*0201 (Homo sapiens, UniProt P04439, D140Y/D185E/D98H/E176V/E277Q/G131W/G231S/I119V/I121R/I166T/I218V/L300P/L318F/N151K/N90K/P208A/P217A/Q86G/Q94H/R138H/R169H/T345S); type: binding; details: REVEAL assay, assembly of peptide-HLA complex by ELISA with conformation-dependent anti-HLA antibody, relative to positive control peptide for that allele, comparable within an allele only
T2 construct: purchased ProImmune Ltd., Oxford, UK

[3] = target: T3, HLA class I molecule B*0702 (Homo sapiens, UniProt P01889); assay: REVEAL HLA-peptide binding assay, B*0702; set-up: concentration or dose not given beside the values; details: assembly of peptide-HLA complex by ELISA with conformation-dependent anti-HLA antibody, relative to positive control peptide for that allele, comparable within an allele only
T3 construct: purchased ProImmune Ltd., Oxford, UK
Procedure: (§1) The REVEAL HLA-peptide binding assay (ProImmune Ltd., Oxford, UK) was used to quantify peptide-HLA binding. For each allele-peptide combination that was tested, assembly of peptide-HLA complexes was quantified by ELISA with a conformation-dependent anti-HLA antibody. Samples of assembling peptide-HLA complexes were taken at a defined time point and snap-frozen in liquid nitrogen prior to analysis. The assembly for each peptide-HLA complex was then compared against a positive control peptide for that allele as the percentage of assembled peptide relative to that control. We selected four HLA class I alleles and 50 HTLV-1 peptides for each allele. The allele choice was based on allele frequency in the Kagoshima database and included 2 A alleles and 2 B alleles as well as alleles for which we knew that the epitope prediction tended to be poor. The 50 HTLV-1 nonamer peptides for each allele were selected to represent a range of predicted binding affinities, from weak to strong binding peptides. They originated from 4 HTLV-1 reference strain proteins: Tax, HBZ, Gag and Polymerase.
(§2) Note the binding score is with respect to a reference good binding peptide for each allele and therefore scores can be compared within an allele but not between alleles.

[4] = target: HLA class I molecule B*3501 (Homo sapiens, UniProt P01889, A329T/A93T/A95T/C349S/D201E/D98Y/E176V/E187L/E204Q/E69T/I218V/K202T/L119I/Q94N/R155S/R180L/S121R/S35A/S48A/T118I/V127L/V306I/V36M/Y140S/Y91F); assay: REVEAL HLA-peptide binding assay, B*3501; details: assembly of peptide-HLA complex by ELISA with conformation-dependent anti-HLA antibody, relative to positive control peptide for that allele, comparable within an allele only
Procedure: as §1, §2

Sequence	Score (experimentally measured binding affinity, % binding compared to control peptide) [1] [%]	Score (experimentally measured binding affinity, % binding compared to control peptide) [2] [%]	Score (experimentally measured binding affinity, % binding compared to control peptide) [3] [%]	Score (experimentally measured binding affinity, % binding compared to control peptide) [4] [%]
IQYSSFHSL [HTLV-1 nonamer peptide]	87.52	93.93	2.94	
RAEKKAADV [HTLV-1 nonamer peptide]			2.78	
PPNHRPWQM [HTLV-1 nonamer peptide]			103.11	
TPKDKTKVL [HTLV-1 nonamer peptide from Gag]			113.7	
HQLKKFLKI [HTLV-1 nonamer peptide]	46.49	0		
WQMKDLQAI [HTLV-1 nonamer peptide]	0	44.68		
KISLTTGAL [HTLV-1 nonamer peptide]		3.54	71.26	
RGRLRRGPP [HTLV-1 nonamer peptide]			1.21	
AASGLFRCL [HTLV-1 nonamer peptide]			107.28	7.33
DPISRLNAL [HTLV-1 nonamer peptide]			115.84	67.38
VPIRSRWAL [HTLV-1 nonamer peptide]			125.64	
AAHHWLNFL [HTLV-1 nonamer peptide]		5.86	27.59	0
KARRRRRAE [HTLV-1 nonamer peptide]			0	
APLPHTSQC [HTLV-1 nonamer peptide]			135.12	
FVERLNIAL [HTLV-1 nonamer peptide]		6.6	104.14	13.69
LSPPITWPL [HTLV-1 nonamer peptide]	4.52	34.53		41.83
RDRQRRAEE [HTLV-1 nonamer peptide]			1.54	
MPVFTLSPV [HTLV-1 nonamer peptide from Pol]			142.96	114.77
LPFHSTLTT [HTLV-1 nonamer peptide]			97.77	102.24
LEAERRKLL [HTLV-1 nonamer peptide]			1.08	
YWQGRLEAM [HTLV-1 nonamer peptide]	40.32			7.1
RRRAEKKAA [HTLV-1 nonamer peptide]			0	
LPVSCPEDL [HTLV-1 nonamer peptide]			6.44	74.86
SLVQLRQAL [HTLV-1 nonamer peptide]		6.84	119.22	0
RVNEILHIL [HTLV-1 nonamer peptide]		49.35	89.83	8.02
QPRPPPGPC [HTLV-1 nonamer peptide]			138.82	
HPGQLGAFL [HTLV-1 nonamer peptide]			60.82	34.24

Sequence	Score (experimentally measured binding affinity, % binding compared to control peptide) [1] [%]	Score (experimentally measured binding affinity, % binding compared to control peptide) [2] [%]	Score (experimentally measured binding affinity, % binding compared to control peptide) [3] [%]	Score (experimentally measured binding affinity, % binding compared to control peptide) [4] [%]
LVLQSSSFI [HTLV-1 nonamer peptide]		41.33	1.65	
QPARAPVTL [HTLV-1 nonamer peptide]			135.43	55.56
STLTTPGLI [HTLV-1 nonamer peptide]	0	0.84		
LPGLNSRQW [HTLV-1 nonamer peptide]			6.78	
RPPRGLAAH [HTLV-1 nonamer peptide]			143.59	34.86
TFLKTAAPL [HTLV-1 nonamer peptide]	86.12		28.15	
RPAPPPPSS [HTLV-1 nonamer peptide]			93.08	
FPGFGQSLL [HTLV-1 nonamer peptide]			102.99	55.31
SARLHRHAL [HTLV-1 nonamer peptide]			236.66	
YPGRVNEIL [HTLV-1 nonamer peptide]			158.86	109.69
GYTRQLEGE [HTLV-1 nonamer peptide]	35.37			
TPNIPPSFL [HTLV-1 nonamer peptide]			138.52	
NFLQAAYRL [HTLV-1 nonamer peptide]	113.8			3.16
LPVMHPHGA [HTLV-1 nonamer peptide]			9.38	
IFSRSASPI [HTLV-1 nonamer peptide]	62.41			
EKAVLDGLL [HTLV-1 nonamer peptide]	0			
TTPNIPPSF [HTLV-1 nonamer peptide]	0.43			
VPYKRIEEL [HTLV-1 nonamer peptide]			133.31	
RICPINYSL [HTLV-1 nonamer peptide]	77.87	71.46	110.59	
TTPGLIWTF [HTLV-1 nonamer peptide]	215.15			
SWASILQGL [HTLV-1 nonamer peptide]	123.67			
EYQQLWLAA [HTLV-1 nonamer peptide]	2.7			
IWQGDITHF [HTLV-1 nonamer peptide]	64.83			
IALETPARI [HTLV-1 nonamer peptide]	9.68	17.01		
AWQNGLLPF [HTLV-1 nonamer peptide]	92.6			
VFTLSPVII [HTLV-1 nonamer peptide]	97.21			
KQIAEYLKR [HTLV-1 nonamer peptide]	3.56			
